Reference: patent publication US9321764B2, “Dihydro-pyrrolopyridinone inhibitors” (AbbVie Inc., priority 2013, dated 2016)

Legend:
[1] = biological target: T1, BRD4 (BDI_K57-E168) (Homo sapiens, UniProt O60885); test: TR-FRET bromodomain binding assay, first bromodomain of BRD4; conditions: His-tagged BD1, 100 nM Alexa647 probe; TR-FRET protocol A-E given per row
T1 construct: BD1: amino acids K57-E168; made in house
In short: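 Ki values come from IC50s (4-parameter logistic) corrected for probe Kd and concentration, normalised to no-compound and 1 μM unlabelled probe controls. Probe displacement by TR-FRET used 8 nM BD1 (K57-E168), 100 nM Alexa647 probe, 1 nM Eu-anti-His, 20 mM phosphate pH 6.0, 2% DMSO, 1 h, room temperature.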

[2] = biological target: T2, BRD4 (BDII_E352-M457) (Homo sapiens, UniProt O60885); test: TR-FRET bromodomain binding assay, second bromodomain of BRD4; conditions: His-tagged BD2, 30 nM Alexa647 probe; TR-FRET protocol A-E given per row
T2 construct: proliferation; Protocol; made in house
In short: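 His-tagged BRD4 BD2 ([…]) competed against an Alexa647-labelled BET-inhibitor probe in TR-FRET. Buffer was 20 mM sodium phosphate pH 6.0, 50 mM NaCl, 1 mM EDTA, 0.01% Triton X-100, 1 mM DTT, with method D DMSO series of 2.5 mM–800 nM (stock range). IC50 from 4-parameter fit, Ki from probe Kd and concentration.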

[3] = test system: breast cancer cell line MX-1; test: MX-1 cell line proliferation assay; type: cell-based; conditions: Homo sapiens, MX1, 72 h, MX-1 cells, 3-day proliferation assay, Cell Titer Glo; read-out: Cellular proliferation EC50
In short: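 Final compound concentrations spanned 0.0001 to 3 μM, added to 5000 cells/well plated the previous night in RPMI 1640 plus 10% FBS at 37 °C.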

SMILES | Ki [1] [µM] | Ki [2] [µM] | EC50 [3] [µM]
CCS(=O)(=O)c1ccc(Oc2ccc(F)cc2F)c(-c2cn(C)c3c(=O)[nH]c(/C=C(\Cl)CCO)cc23)c1 [Example 126, 5-[(1Z)-2-chloro-4-hydroxybut-1-en-1-yl]-3-[2-(2,4-difluorophenoxy)-5-(ethylsulfonyl)phenyl]-1-methyl-1,6-dihydro-7H-pyrrolo[2,3-c]pyridin-7-one] | 0.0083 | 0.0057 | 0.0819
Cn1cc(-c2cc(S(C)(=O)=O)ccc2O[C@H]2CC[C@H](O)CC2)c2cc[nH]c(=O)c21 [Example 34, 3-{2-[(trans-4-hydroxycyclohexyl)oxy]-5-(methylsulfonyl)phenyl}-1-methyl-1,6-dihydro-7H-pyrrolo[2,3-c]pyridin-7-one] | 0.0016 | 0.029 | 0.095
Cn1cc(-c2cc(S(C)(=O)=O)ccc2OC2CCCOC2)c2cc[nH]c(=O)c21 (stereo not drawn) [Example 26, 1-methyl-3-[5-(methylsulfonyl)-2-(tetrahydro-2H-pyran-3-yloxy)phenyl]-1,6-dihydro-7H-pyrrolo[2,3-c]pyridin-7-one] | 0.007 | 0.06 | 0.123
CCS(=O)(=O)Nc1ccc(Oc2ccc(F)cc2F)c(-c2cn(C)c3c(=O)[nH]c(C4CCN(S(=O)(=O)CC)CC4)cc23)c1 [Example 186, N-[4-(2,4-difluorophenoxy)-3-{5-[1-(ethylsulfonyl)piperidin-4-yl]-1-methyl-7-oxo-6,7-dihydro-1H-pyrrolo[2,3-c]pyridin-3-yl}phenyl]ethanesulfonamide] | 0.00038 | 0.00082 | 0.0134
Cn1cc(-c2cc(S(C)(=O)=O)ccc2OCCC2CC2)c2c(Cl)c[nH]c(=O)c21 [Example 109, 4-chloro-3-[2-(2-cyclopropylethoxy)-5-(methylsulfonyl)phenyl]-1-methyl-1,6-dihydro-7H-pyrrolo[2,3-c]pyridin-7-one] | 0.057 | 0.067 | 0.268
CCS(=O)(=O)C(C)(C)c1ccc(Oc2ccc(F)cc2F)c(-c2cn(C)c3c(=O)[nH]ccc23)c1 [Example 54, 3-{2-(2,4-difluorophenoxy)-5-[2-(ethylsulfonyl)propan-2-yl]phenyl}-1-methyl-1,6-dihydro-7H-pyrrolo[2,3-c]pyridin-7-one] | 0.0034 | 0.026 | 0.021
Cn1cc(-c2cc(S(C)(=O)=O)ccc2NCC2CCCC2)c2cc[nH]c(=O)c21 [Example 68, 3-{2-[(cyclopentylmethyl)amino]-5-(methylsulfonyl)phenyl}-1-methyl-1,6-dihydro-7H-pyrrolo[2,3-c]pyridin-7-one] | 0.103 | 0.124 | 0.038
Cn1cc(-c2cc(S(=O)(=O)N3CCCC3)ccc2O[C@H]2CC[C@H](N(C)C)CC2)c2cc[nH]c(=O)c21 [Example 144, 3-[2-{[trans-4-(dimethylamino)cyclohexyl]oxy}-5-(pyrrolidin-1-ylsulfonyl)phenyl]-1-methyl-1,6-dihydro-7H-pyrrolo[2,3-c]pyridin-7-one] | 0.0082 | 0.107 | 0.0731
CCS(=O)(=O)Nc1ccc(Oc2ccc(F)cc2F)c(-c2cn(C)c3c(=O)[nH]c(C(=O)NCc4cccnc4)cc23)c1 [Example 192, 3-{2-(2,4-difluorophenoxy)-5-[(ethylsulfonyl)amino]phenyl}-1-methyl-7-oxo-N-(pyridin-3-ylmethyl)-6,7-dihydro-1H-pyrrolo[2,3-c]pyridine-5-carboxamide] | 0.0009 | 0.0013 | 0.0107
CN1CCN(Cc2ccc(Oc3ccc(F)cc3F)c(-c3cn(C)c4c(=O)[nH]ccc34)c2)CC1 [Example 116, 3-{2-(2,4-difluorophenoxy)-5-[(4-methylpiperazin-1-yl)methyl]phenyl}-1-methyl-1,6-dihydro-7H-pyrrolo[2,3-c]pyridin-7-one] | 0.093 | 0.145 | 0.578
CCS(=O)(=O)Nc1ccc(OC2CCOCC2)c(-c2cn(C)c3c(=O)[nH]ccc23)c1 [Example 7, N-[3-(1-methyl-7-oxo-6,7-dihydro-1H-pyrrolo[2,3-c]pyridin-3-yl)-4-(tetrahydro-2H-pyran-4-yloxy)phenyl]ethanesulfonamide] | 0.004 | 0.016 | 0.093
Cn1cc(-c2cc(S(C)(=O)=O)ccc2OC2CCOCC2)c2cc[nH]c(=O)c21 [Example 24, 1-methyl-3-[5-(methylsulfonyl)-2-(tetrahydro-2H-pyran-4-yloxy)phenyl]-1,6-dihydro-7H-pyrrolo[2,3-c]pyridin-7-one] | 0.017 | 0.089 | 0.231
CN(CC1CC1)c1ccc(S(C)(=O)=O)cc1-c1cn(C)c2c(=O)[nH]ccc12 [Example 45, 3-{2-[(cyclopropylmethyl)(methyl)amino]-5-(methylsulfonyl)phenyl}-1-methyl-1,6-dihydro-7H-pyrrolo[2,3-c]pyridin-7-one] | 0.037 | 0.07 | 0.279
CCS(=O)(=O)Nc1ccc(Oc2ccc(F)cc2F)c(-c2cn(C)c3c(=O)[nH]c(C(=O)NCCCn4ccnc4)cc23)c1 [Example 187, 3-{2-(2,4-difluorophenoxy)-5-[(ethylsulfonyl)amino]phenyl}-N-[3-(1H-imidazol-1-yl)propyl]-1-methyl-7-oxo-6,7-dihydro-1H-pyrrolo[2,3-c]pyridine-5-carboxamide] | 0.00121 | 0.00202 | 0.0647
Cn1cc(-c2cc(CS(N)(=O)=O)ccc2Oc2ccc(F)cc2F)c2cc[nH]c(=O)c21 [Example 96, 1-[4-(2,4-difluorophenoxy)-3-(1-methyl-7-oxo-6,7-dihydro-1H-pyrrolo[2,3-c]pyridin-3-yl)phenyl]methanesulfonamide] | 0.0069 | 0.011 | 0.015
Cn1cc(-c2cc(S(C)(=O)=O)ccc2OCC(F)(F)C(F)(F)F)c2cc[nH]c(=O)c21 [Example 64, 1-methyl-3-[5-(methylsulfonyl)-2-(2,2,3,3,3-pentafluoropropoxy)phenyl]-1,6-dihydro-7H-pyrrolo[2,3-c]pyridin-7-one] | 0.036 | 0.057 | 0.084
Cn1cc(-c2cc(S(C)(=O)=O)ccc2OCC2(C)CC2)c2cc[nH]c(=O)c21 [Example 29, 1-methyl-3-{2-[(1-methylcyclopropyl)methoxy]-5-(methylsulfonyl)phenyl}-1,6-dihydro-7H-pyrrolo[2,3-c]pyridin-7-one] | 0.012 | 0.089 | 0.191
Cn1cc(-c2cc(CNCc3c[nH]cn3)ccc2Oc2ccc(F)cc2F)c2cc[nH]c(=O)c21 [Example 119, 3-[2-(2,4-difluorophenoxy)-5-{[(1H-imidazol-4-ylmethyl)amino]methyl}phenyl]-1-methyl-1,6-dihydro-7H-pyrrolo[2,3-c]pyridin-7-one] | 0.599 | 0.478 | > 3
Cc1cnc(C(=O)Nc2ccc(Oc3ccc(F)cc3F)c(-c3cn(C)c4c(=O)[nH]ccc34)c2)cn1 [Example 151, N-[4-(2,4-difluorophenoxy)-3-(1-methyl-7-oxo-6,7-dihydro-1H-pyrrolo[2,3-c]pyridin-3-yl)phenyl]-5-methylpyrazine-2-carboxamide] | 0.0161 | 0.032 | 0.2
Cn1cc(-c2cc(CS(C)(=O)=O)ccc2Oc2ccc(F)cc2F)c2cc(Cl)[nH]c(=O)c21 [Example 91, 5-chloro-3-{2-(2,4-difluorophenoxy)-5-[(methylsulfonyl)methyl]phenyl}-1-methyl-1,6-dihydro-7H-pyrrolo[2,3-c]pyridin-7-one] | 0.0054 | 0.0095 | 0.008
Cn1cc(-c2cc(S(C)(=O)=O)ccc2OCC2CC2)c2cc[nH]c(=O)c21 [Example 20, 3-[2-(cyclopropylmethoxy)-5-(methylsulfonyl)phenyl]-1-methyl-1,6-dihydro-7H-pyrrolo[2,3-c]pyridin-7-one] | 0.018 | 0.165 | 0.181
Cn1cc(-c2cc(CS(C)(=O)=O)ccc2Nc2ccc(F)cc2)c2cc[nH]c(=O)c21 [Example 121, 3-{2-[(4-fluorophenyl)amino]-5-[(methylsulfonyl)methyl]phenyl}-1-methyl-1,6-dihydro-7H-pyrrolo[2,3-c]pyridin-7-one] | 0.012 | 0.079 | 0.04
Cn1cc(-c2cc(CNCCC3CCCC3)ccc2Oc2ccc(F)cc2F)c2cc[nH]c(=O)c21 [Example 128, 3-[5-{[(2-cyclopentylethyl)amino]methyl}-2-(2,4-difluorophenoxy)phenyl]-1-methyl-1,6-dihydro-7H-pyrrolo[2,3-c]pyridin-7-one] | 1.49 | 0.654 | > 3
Cn1cc(-c2cc(CCl)ccc2Oc2ccc(F)cc2F)c2cc[nH]c(=O)c21 [Example 120, 3-[5-(chloromethyl)-2-(2,4-difluorophenoxy)phenyl]-1-methyl-1,6-dihydro-7H-pyrrolo[2,3-c]pyridin-7-one] | 0.077 | 0.208 | 0.306
